Conditions: Liquid, Vibrating tube method

CCCCCCC(=O)OCC(COC(=O)CCCCCC)(COC(=O)CCCCCC)COC(=O)CCCCCC [pentaerythritol tetraheptanoate]
Conditions | mass density [kg/m3]
303.14 K, 15632 kPa | 980.3
303.14 K, 15661 kPa | 980.3
303.14 K, 15697 kPa | 980.2
303.14 K, 15727 kPa | 980.3
303.14 K, 15793 kPa | 980.4
303.14 K, 15884 kPa | 980.5
303.14 K, 15938 kPa | 980.5
303.14 K, 16023 kPa | 980.5
303.14 K, 16056 kPa | 980.5
303.14 K, 16112 kPa | 980.6
303.14 K, 16138 kPa | 980.6
303.14 K, 16199 kPa | 980.7
303.14 K, 16259 kPa | 980.6
303.14 K, 16286 kPa | 980.6
303.14 K, 16377 kPa | 980.7
303.14 K, 16405 kPa | 980.8
303.14 K, 16470 kPa | 980.7
303.14 K, 16655 kPa | 981
303.14 K, 16744 kPa | 980.9
303.14 K, 16780 kPa | 980.9
303.14 K, 16840 kPa | 981
303.14 K, 16876 kPa | 981
303.14 K, 17172 kPa | 981.2
303.14 K, 17203 kPa | 981.2
303.14 K, 17235 kPa | 981.3
303.14 K, 17267 kPa | 981.3
303.14 K, 17439 kPa | 981.4
303.14 K, 17478 kPa | 981.3
303.14 K, 17511 kPa | 981.3
303.14 K, 17543 kPa | 981.3
303.14 K, 17576 kPa | 981.4
303.14 K, 17615 kPa | 981.3
303.14 K, 17648 kPa | 981.5
303.14 K, 17688 kPa | 981.4
303.14 K, 17722 kPa | 981.5
303.14 K, 18010 kPa | 981.6
303.14 K, 18086 kPa | 981.7
303.14 K, 18423 kPa | 981.9
303.14 K, 18547 kPa | 981.9
303.14 K, 18582 kPa | 981.9
303.14 K, 18643 kPa | 982
303.14 K, 18679 kPa | 981.9
303.14 K, 18709 kPa | 982
303.14 K, 18745 kPa | 982.1
303.14 K, 18776 kPa | 982
303.14 K, 18806 kPa | 982
303.14 K, 18836 kPa | 982.2
303.14 K, 18874 kPa | 982.1
303.14 K, 18904 kPa | 982.1
303.14 K, 19140 kPa | 982.3
303.14 K, 19172 kPa | 982.2
303.14 K, 19205 kPa | 982.4
303.14 K, 19237 kPa | 982.3
303.14 K, 19276 kPa | 982.4
303.14 K, 19309 kPa | 982.5
303.14 K, 19518 kPa | 982.4
303.14 K, 19558 kPa | 982.6
303.14 K, 19592 kPa | 982.5
303.14 K, 19625 kPa | 982.6
303.14 K, 19666 kPa | 982.5
303.14 K, 19700 kPa | 982.5
303.14 K, 19734 kPa | 982.6
303.14 K, 19808 kPa | 982.7
303.14 K, 19842 kPa | 982.6
303.14 K, 19884 kPa | 982.6
303.14 K, 20108 kPa | 982.9
303.14 K, 20178 kPa | 982.8
303.14 K, 20221 kPa | 982.9
303.14 K, 20257 kPa | 982.9
303.14 K, 20293 kPa | 982.9
303.14 K, 20850 kPa | 983.3
303.14 K, 20889 kPa | 983.2
303.14 K, 21395 kPa | 983.7
303.14 K, 21485 kPa | 983.6
303.14 K, 21938 kPa | 983.8
303.14 K, 21981 kPa | 983.8
303.14 K, 22061 kPa | 983.9
303.14 K, 22488 kPa | 984.1
303.14 K, 22529 kPa | 984.1
303.14 K, 22605 kPa | 984.2
303.14 K, 22942 kPa | 984.4
303.14 K, 22983 kPa | 984.4
303.14 K, 23655 kPa | 984.8
303.14 K, 23688 kPa | 984.8
303.14 K, 23722 kPa | 984.7
303.14 K, 23763 kPa | 984.8
303.14 K, 24089 kPa | 985
303.14 K, 24131 kPa | 985.1
303.14 K, 24166 kPa | 985.1
303.14 K, 24356 kPa | 985.1
303.14 K, 28039 kPa | 987.2
303.14 K, 29427 kPa | 988
303.15 K, 11258 kPa | 977.6
303.15 K, 11434 kPa | 977.8
303.15 K, 11462 kPa | 977.7
303.15 K, 11546 kPa | 977.9
303.15 K, 11738 kPa | 978
303.15 K, 13121 kPa | 978.8
303.15 K, 13570 kPa | 979
303.15 K, 13874 kPa | 979.2
303.15 K, 13902 kPa | 979.2
303.15 K, 13922 kPa | 979.2
303.15 K, 13972 kPa | 979.4
303.15 K, 14222 kPa | 979.5
303.15 K, 14324 kPa | 979.5
303.15 K, 14456 kPa | 979.6
303.15 K, 14482 kPa | 979.7
303.15 K, 14511 kPa | 979.6
303.15 K, 14536 kPa | 979.7
303.15 K, 14567 kPa | 979.7
303.15 K, 14592 kPa | 979.6
303.15 K, 14618 kPa | 979.8
303.15 K, 14643 kPa | 979.6
303.15 K, 14669 kPa | 979.7
303.15 K, 14835 kPa | 979.7
303.15 K, 14866 kPa | 979.8
303.15 K, 14893 kPa | 979.8
303.15 K, 14920 kPa | 979.9
303.15 K, 14947 kPa | 979.9
303.15 K, 14979 kPa | 979.9
303.15 K, 15006 kPa | 979.9
303.15 K, 15179 kPa | 980
303.15 K, 15268 kPa | 980.1
303.15 K, 15330 kPa | 980.1
303.15 K, 15358 kPa | 980.1
303.15 K, 15511 kPa | 980.2
303.15 K, 15757 kPa | 980.3
303.15 K, 15823 kPa | 980.4
303.15 K, 15852 kPa | 980.4
303.15 K, 15911 kPa | 980.5
303.15 K, 15969 kPa | 980.5
303.15 K, 15996 kPa | 980.5
303.15 K, 16084 kPa | 980.4
303.15 K, 16171 kPa | 980.5
303.15 K, 16226 kPa | 980.7
303.15 K, 16314 kPa | 980.7
303.15 K, 16348 kPa | 980.7
303.15 K, 16441 kPa | 980.7
303.15 K, 16499 kPa | 980.7
303.15 K, 16527 kPa | 980.8
303.15 K, 16556 kPa | 980.8
303.15 K, 16591 kPa | 980.8
303.15 K, 16620 kPa | 980.9
303.15 K, 16684 kPa | 980.8
303.15 K, 16714 kPa | 981
303.15 K, 16809 kPa | 980.9
303.15 K, 16906 kPa | 981
303.15 K, 16937 kPa | 981.1
303.15 K, 16967 kPa | 981.1
303.15 K, 17004 kPa | 981
303.15 K, 17035 kPa | 981
303.15 K, 17066 kPa | 981.1
303.15 K, 17103 kPa | 981.1
303.15 K, 17134 kPa | 981.1
303.15 K, 17305 kPa | 981.2
303.15 K, 17337 kPa | 981.2
303.15 K, 17369 kPa | 981.4
303.15 K, 17407 kPa | 981.3
303.15 K, 17756 kPa | 981.5
303.15 K, 17796 kPa | 981.5
303.15 K, 17831 kPa | 981.5
303.15 K, 17865 kPa | 981.5
303.15 K, 17899 kPa | 981.6
303.15 K, 17940 kPa | 981.7
303.15 K, 17975 kPa | 981.7
303.15 K, 18052 kPa | 981.6
303.15 K, 18128 kPa | 981.7
303.15 K, 18164 kPa | 981.8
303.15 K, 18201 kPa | 981.7
303.15 K, 18237 kPa | 981.8
303.15 K, 18282 kPa | 981.7
303.15 K, 18319 kPa | 981.9
303.15 K, 18356 kPa | 981.8
303.15 K, 18394 kPa | 981.8
303.15 K, 18458 kPa | 981.9
303.15 K, 18488 kPa | 981.8
303.15 K, 18517 kPa | 981.8
303.15 K, 18612 kPa | 982
303.15 K, 18935 kPa | 982.2
303.15 K, 18973 kPa | 982.2
303.15 K, 19005 kPa | 982.2
303.15 K, 19038 kPa | 982.3
303.15 K, 19070 kPa | 982.2
303.15 K, 19102 kPa | 982.2
303.15 K, 19342 kPa | 982.4
303.15 K, 19381 kPa | 982.5
303.15 K, 19414 kPa | 982.5
303.15 K, 19448 kPa | 982.5
303.15 K, 19484 kPa | 982.6
303.15 K, 19774 kPa | 982.5
303.15 K, 19918 kPa | 982.7
303.15 K, 19954 kPa | 982.7
303.15 K, 19989 kPa | 982.8
303.15 K, 20030 kPa | 982.7
303.15 K, 20066 kPa | 982.9
303.15 K, 20143 kPa | 982.9
303.15 K, 20336 kPa | 982.9
303.15 K, 20372 kPa | 982.9
303.15 K, 20409 kPa | 983
303.15 K, 20454 kPa | 983
303.15 K, 20490 kPa | 983.1
303.15 K, 20527 kPa | 983.1
303.15 K, 20572 kPa | 983.1
303.15 K, 20609 kPa | 983.2
303.15 K, 20647 kPa | 983.1
303.15 K, 20691 kPa | 983.2
303.15 K, 20729 kPa | 983.3
303.15 K, 20767 kPa | 983.1
303.15 K, 20812 kPa | 983.2
303.15 K, 20936 kPa | 983.2
303.15 K, 20976 kPa | 983.4
303.15 K, 21014 kPa | 983.4
303.15 K, 21054 kPa | 983.3
303.15 K, 21101 kPa | 983.4
303.15 K, 21140 kPa | 983.4
303.15 K, 21179 kPa | 983.5
303.15 K, 21227 kPa | 983.4
303.15 K, 21267 kPa | 983.4
303.15 K, 21314 kPa | 983.5
303.15 K, 21354 kPa | 983.4
303.15 K, 21444 kPa | 983.6
303.15 K, 21526 kPa | 983.6
303.15 K, 21576 kPa | 983.5
